In the CheMixHub viscosity set:
Where “and” joins values, the source holds several entries; their conditions need not be identical. Identical values can stand only once. ± gives the uncertainty stated by the source.

Columns and labels:
[1] = xn = mol fraction of the nth substance listed

C1CCC(C2CCCCC2)CC1
102 kPa
Settings	viscosity [mPa·s]
293.15 K	4.06 ± 0.03
303.15 K	3.18 ± 0.02
313.15 K	2.56 ± 0.02
323.15 K	2.1 ± 0.02

CC(=O)[O-].C[N+]1(CC2CO2)CCCC1=O (stereo not drawn)
101 kPa
Settings	viscosity
293.15 K	6.55 ± 0.15 mPa·s
298.15 K	5.55 ± 0.13 mPa·s
303.15 K	4.77 ± 0.11 mPa·s
308.15 K	4.13 ± 0.09 mPa·s and 4.14 ± 0.09 mPa·s
313.15 K	3.62 ± 0.08 mPa·s

CCCCC(=O)O
Settings	viscosity [mPa·s]
298.15 K, 101 kPa	1.97 ± 0.051

CCCCCCCCCCCCCC(=O)OCC
100 kPa
Settings	viscosity [mPa·s]
308.15 K	3.322 ± 0.078
318.15 K	2.699 ± 0.063
323.15 K	2.451 ± 0.058

CCCCCCCCCCCCOC(C)=O
Settings	viscosity [mPa·s]
303.15 K, 101.3 kPa	3.089 ± 0.024

CCCCCCCC[N+](C)(CCCCCCCC)CCCCCCCC.[Cl-]
101 kPa
Settings	viscosity [mPa·s]
298.15 K	2391 ± 800
303.15 K	1602 ± 480
308.15 K	1067 ± 280
313.15 K	766.1 ± 180
318.15 K	568.9 ± 120

CCCCO
Settings	viscosity
293.15 K, 100 kPa	2.873 ± 0.17 mPa·s and 2.61 ± 0.15 mPa·s and 2.868 ± 0.032 mPa·s
293.15 K, 101 kPa	2.929 ± 0.066 mPa·s and 2.868 ± 0.015 mPa·s
293.15 K, 101.33 kPa	2.9 ± 0.04 mPa·s
298 K, 101.3 kPa	2.507 ± 0.031 mPa·s
298 K, 101.33 kPa	2.52 ± 0.02 mPa·s
298.15 K, 101.3 kPa	2.442 ± 0.03 mPa·s
303 K, 101.33 kPa	2.095 ± 0.22 mPa·s
303.15 K, 101 kPa	2.121 ± 0.017 mPa·s and 2.002 ± 0.027 mPa·s and 2.12 ± 0.026 mPa·s
303.15 K, 101.3 kPa	2.129 ± 0.027 mPa·s
308 K, 101.3 kPa	1.903 ± 0.19 mPa·s
308.15 K, 101.3 kPa	1.856 ± 0.023 mPa·s
308.15 K, 101.33 kPa	1.929 ± 0.012 mPa·s and 1.949 ± 0.024 mPa·s
313 K, 101.3 kPa	1.62 ± 0.16 mPa·s
313.15 K, 101 kPa	1.7 ± 0.027 mPa·s and 1.687 ± 0.06 mPa·s
313.15 K, 101.3 kPa	1.692 ± 0.04 mPa·s and 1.817 ± 0.022 mPa·s
318 K, 101.3 kPa	1.456 ± 0.15 mPa·s
318.15 K, 100 kPa	1.563 ± 0.018 mPa·s
318.15 K, 101.33 kPa	1.487 mPa·s
323 K, 100 kPa	1.215 ± 0.24 mPa·s
323 K, 101.3 kPa	1.334 ± 0.13 mPa·s
323.15 K, 101 kPa	1.361 ± 0.11 mPa·s and 1.329 ± 0.018 mPa·s
323.15 K, 101.33 kPa	1.393 ± 0.044 mPa·s and 1.393 ± 0.013 mPa·s and 1.09 ± 0.17 mPa·s

CCCCOCCOCCOCCCC
101.3 kPa
Settings	viscosity [mPa·s]
298.15 K	2.16 ± 0.033
308.15 K	1.762 ± 0.027
318.15 K	1.408 ± 0.022

CCCC[n+]1ccc(C)cc1.N#C[S-]
101 kPa
Settings	viscosity [mPa·s]
298.15 K	85.69 ± 12
308.15 K	51.75 ± 0.55
318.15 K	33.88 ± 2.1

CCOC(=O)C(Cl)(Cl)Cl
Settings	viscosity [mPa·s]
323.15 K, 101 kPa	1.037 ± 0.013

CCOC(=O)Cn1cc[n+](C)c1.[Cl-]
Settings	viscosity [mPa·s]
298.15 K, 101 kPa	348.6 ± 16

CCn1cc[n+](C)c1.O=C([O-])C(F)(F)C(F)(F)C(F)(F)C(F)(F)F
101 kPa
Settings	viscosity [mPa·s]
298.15 K	107.5 ± 4.6
308.15 K	65.87 ± 2.7
318.15 K	43.09 ± 1.8

CSC
Settings	viscosity [mPa·s]
293.15 K, 101 kPa	0.307 ± 0.008

Cc1cccnc1
Settings	viscosity [mPa·s]
298.15 K, 101 kPa	0.8723 ± 0.014

Fc1c(F)c(F)c(F)c(F)c1F
viscosity [mPa·s]
Settings	293.15 K	298.15 K	303.15 K	308.15 K	313.15 K	318.15 K	323.15 K
101 kPa	0.951 ± 0.009	–	0.793 ± 0.008	–	0.664 ± 0.007	–	0.591 ± 0.006
101.33 kPa	0.9446 ± 0.0076	0.8695 ± 0.007	–	0.7631 ± 0.0061	–	0.6708 ± 0.0054	–

NCCN1CCNCC1
100 kPa
Settings	viscosity [mPa·s]
298.15 K	14.48 ± 1.4
308.15 K	11.34 ± 1.1
318.15 K	7.1 ± 0.71

NCCNCCN
101.33 kPa
Settings	viscosity [mPa·s]
298.15 K	5.52 ± 0.23
308.15 K	3.865 ± 0.16
318.15 K	3.048 ± 0.12
323.15 K	2.698 ± 0.11

C1CCC(C2CCCCC2)CC1 + c1ccc2c(c1)CCCC2
viscosity [mPa·s], [1], 102 kPa
Settings	x2 = 0.1226	x2 = 0.2394	x2 = 0.3504	x2 = 0.4561	x2 = 0.5573	x2 = 0.6537	x2 = 0.747	x2 = 0.8343	x2 = 0.9189
293.15 K	3.67 ± 0.03	3.35 ± 0.03	3.08 ± 0.03	2.87 ± 0.03	2.7 ± 0.03	2.55 ± 0.03	2.44 ± 0.03	2.34 ± 0.03	2.28 ± 0.03
303.15 K	2.91 ± 0.02	2.67 ± 0.02	2.48 ± 0.02	2.33 ± 0.02	2.2 ± 0.02	2.09 ± 0.02	2 ± 0.02	1.93 ± 0.02	1.88 ± 0.02
313.15 K	2.36 ± 0.02	2.19 ± 0.02	2.04 ± 0.02	1.93 ± 0.02	1.83 ± 0.02	1.75 ± 0.02	1.68 ± 0.02	1.62 ± 0.02	1.58 ± 0.02
323.15 K	1.95 ± 0.02	1.82 ± 0.02	1.71 ± 0.02	1.62 ± 0.02	1.54 ± 0.02	1.48 ± 0.02	1.43 ± 0.02	1.38 ± 0.02	1.35 ± 0.02

C=C1CCC2CC1C2(C)C (stereo not drawn) + c1ccccc1
viscosity [mPa·s], [1], 101 kPa
Settings	x2 = 0.3052	x2 = 0.4296	x2 = 0.5395	x2 = 0.6373	x2 = 0.7249	x2 = 0.8039	x2 = 0.8754	x2 = 0.9405
303.15 K	1.187 ± 0.028	0.998 ± 0.024	0.867 ± 0.021	0.759 ± 0.019	0.691 ± 0.018	0.646 ± 0.017	0.614 ± 0.016	0.593 ± 0.016
308.15 K	1.106 ± 0.026	0.936 ± 0.023	0.807 ± 0.02	0.71 ± 0.018	0.655 ± 0.017	0.619 ± 0.016	0.587 ± 0.016	0.566 ± 0.015
313.15 K	1.022 ± 0.025	0.866 ± 0.021	0.749 ± 0.019	0.658 ± 0.017	0.614 ± 0.016	0.583 ± 0.015	0.556 ± 0.015	0.537 ± 0.015

CCCCC(=O)O + c1ccccc1
[1], 298.15 K, 101 kPa
Settings	viscosity [mPa·s]
x1 = 0.04	0.62 ± 0.016
x1 = 0.078	0.639 ± 0.017
x1 = 0.12	0.662 ± 0.017
x1 = 0.16	0.687 ± 0.018
x1 = 0.34	0.825 ± 0.022
x1 = 0.43	0.92 ± 0.024
x1 = 0.53	1.062 ± 0.028
x1 = 0.75	1.436 ± 0.038

Cc1cccc(N)c1 + c1ccccc1
[1], 303.15 K, 101.33 kPa
Settings	viscosity [mPa·s]
x1 = 0.196	0.695 ± 0.015
x1 = 0.405	0.87 ± 0.015
x1 = 0.598	1.15 ± 0.017
x1 = 0.795	1.54 ± 0.019

NC(N)=S + c1ccncc1
[1], 298.15 K, 101 kPa
Settings	viscosity [mPa·s]
x1 = 0.0572	1.251 ± 0.25
x1 = 0.13	2.019 ± 0.4
